Experimental findings from patent US11564928B1, “Cannabinoid receptor type 2 (CB2) modulators and uses thereof” (Teon Therapeutics, Inc., priority 2020, dated 2023) are described below.

The target of assay [1] is T1, human CB2 receptor (Homo sapiens (Human), UniProt P34972). Kind of assay: CB2 receptor binding assay ([3H]CP-55,940 displacement, HEK-293 membranes). Conditions: membranes of HEK-293 cells with human recombinant CB2R, [3H]CP-55,940, read-out: CB2 IC50.
The target in the next assay is human recombinant CB1R (Homo sapiens (Human), UniProt P21554). The experiment in a line: CB1 receptor binding assay ([3H]CP-55,940 displacement, HEK-293 membranes). Conditions: membranes of HEK-293 cells with human recombinant CB1R, [3H]CP-55,940, read-out: CB1 IC50. Put shortly: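 Membranes from HEK-293 cells expressing human recombinant CB1R or CB2R were incubated with [3H]CP-55,940 and compound for 120 min at 37 °C in duplicate. The CB2R incubation buffer was 50 mM Tris-HCl, 5 mM MgCl2, 1 mM CaCl2, 0.2% BSA, pH 7.4. Bound radioactivity was filtered and counted, and IC50 was converted to Ki by Cheng–Prusoff.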

Assay [2] deals with T1, human CB2 receptor. The experiment in a line: CB2 receptor cAMP assay (DiscoverX HitHunter cAMP XS+). Conditions: for Emax: CHO-K1, read-out: Max Stimulation %. In kind it is cell-based. The method, then:
cAMP Hunter CHO-K-1 cell lines expressing human CB2 receptor (Eurofins) were expanded from freezer stocks according to standard procedures. Cells were seeded in a total volume of 20 μL into white walled, 384-well microplates and incubated at 37° C. for the appropriate time prior to testing. cAMP modulation in agonist, inverse agonist or antagonist format was determined using the DiscoverX HitHunter cAMP XS+ assay (Eurofins). For agonist determination, cells were incubated with sample in the presence of EC80 forskolin to induce response. Media was aspirated from cells and replaced with 15 μL 2:1 HBSS/10 mM Hepes: cAMP XS+Ab reagent. Intermediate dilution of sample stocks was performed to generate 4× sample in assay buffer containing 4× EC80 forskolin. 5 μL of 4× sample was added to cells and incubated at 37° C. or room temperature for 30 or 60 minutes. Final assay vehicle concentration was 1%. For inverse agonist determination, cells were preincubated with sample in the presence of EC20 forskolin. Media was aspirated from cells and replaced with 15 μL, 2:1 HBSS/10 mM Hepes: cAMP XS+Ab reagent. Intermediate dilution of sample stocks was performed to generate 4× sample in assay buffer containing 4× EC20 forskolin. 5 μL of 4× sample was added to cells and incubated at 37° C. or room temperature for 30 or 60 minutes. Final assay vehicle concentration was 1%. For antagonist determination, cells were pre-incubated with sample followed by agonist challenge at the EC80 concentration. Media was aspirated from cells and replaced with 10 μL 1:1 HBSS/Hepes: cAMP XS+Ab reagent. 5 μL of 4× compound was added to the cells and incubated at 37° C. or room temperature for 30 minutes. 5 μL of 4× EC80 agonist was added to cells and incubated at 37° C. or room temperature for 30 or 60 minutes. EC80 forksolin was included. After appropriate compound incubation, assay signal was generated through incubation with 20 μL cAMP XS+ED/CL lysis cocktail for one hour followed by incubation with 20 μL, cAMP XS+EA reagent for three hours at room temperature. Microplates were read following signal generation with a PerkinElmer Envision instrument for chemiluminescent signal detection. Compound activity was analyzed using CBIS data analysis suite (ChemInnovation, CA). For agonist mode assay, percentage activity is calculated using the following formula: % Activity=100%×(1−(mean RLU of test sample−mean RLU of MAX control)/(mean RLU of vehicle control−mean RLU of MAX control)). For inverse agonist mode assay, percentage activity is calculated using the following formula: % Inverse Agonist Activity=100%×((mean RLU of test sample−mean RLU of EC20 forskolin)/(mean RLU of forskolin positive control−mean RLU of EC20 control)). For antagonist mode assay, percentage inhibition is calculated using the following formula: % Inhibition=100%×(mean RLU of test sample−mean RLU of EC80 control)/(mean RLU of forskolin positive control−mean RLU of EC80 control). Data are analyzed and IC50 is calculated using GraphPad Prism 5 and the model “log(inhibitor) vs. response—Variable slope”.

Where [3] appears, read: cAMP Hunter CHO-K-1 cells expressing human CB2 receptor, read-out: cAMP IC50.

Where two headings read alike, the source gives them in different places. A value given as a limit tells only on which side of the number the result lay.

T1 sequence (P34972 whole entry): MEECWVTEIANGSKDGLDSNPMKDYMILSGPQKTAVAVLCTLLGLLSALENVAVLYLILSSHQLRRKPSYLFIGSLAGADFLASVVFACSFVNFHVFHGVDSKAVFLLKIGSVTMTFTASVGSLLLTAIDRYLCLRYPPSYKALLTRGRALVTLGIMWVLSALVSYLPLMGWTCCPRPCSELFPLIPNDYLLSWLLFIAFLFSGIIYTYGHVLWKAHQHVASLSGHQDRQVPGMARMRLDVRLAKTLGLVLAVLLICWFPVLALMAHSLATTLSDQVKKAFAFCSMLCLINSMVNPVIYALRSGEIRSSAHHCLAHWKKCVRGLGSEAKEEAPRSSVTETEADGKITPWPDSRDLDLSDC
Chain of human recombinant CB1R (P21554 whole entry): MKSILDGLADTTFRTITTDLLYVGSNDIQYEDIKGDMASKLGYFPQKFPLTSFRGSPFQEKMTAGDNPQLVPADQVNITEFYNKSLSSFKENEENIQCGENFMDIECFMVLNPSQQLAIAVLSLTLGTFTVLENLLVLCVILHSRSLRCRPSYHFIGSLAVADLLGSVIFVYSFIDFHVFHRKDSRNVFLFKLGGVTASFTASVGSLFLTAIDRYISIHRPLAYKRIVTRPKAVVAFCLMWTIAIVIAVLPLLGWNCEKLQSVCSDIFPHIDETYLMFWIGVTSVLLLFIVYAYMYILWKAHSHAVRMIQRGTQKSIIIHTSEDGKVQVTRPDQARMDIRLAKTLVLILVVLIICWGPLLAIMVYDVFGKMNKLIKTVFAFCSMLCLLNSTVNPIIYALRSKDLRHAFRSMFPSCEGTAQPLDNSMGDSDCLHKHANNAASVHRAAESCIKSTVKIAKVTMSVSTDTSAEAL

As usually defined, the IC50 is the concentration at which inhibition is half-maximal. `COc1ccc(-c2cnc3c(c2)cc(C(=O)NC(C)c2ccc(F)cc2)c(=O)n3CCN2CCOCC2)cc1` (stereo not shown) [Compound 30, N-(1-(4-fluorophenyl)ethyl)-6-(4-methoxyphenyl)-1-(2-morpholinoethyl)-2-oxo-1,2-dihydro-1,8-naphthyridine-3-carboxamide]: the IC50 was 1.2 nM on human CB2 receptor [1], greater than 10000 nM at human recombinant CB1R and 17 nM on human CB2 receptor [2]. Besides, the Emax on human CB2 receptor [2] came to 89%.
Turning to `COc1ccc(-c2cnc3c(c2)cc(C(=O)NC2CC4(COC4)C2)c(=O)n3CCN2CCOCC2)cc1` [Compound 31, 6-(4-methoxyphenyl)-1-(2-morpholinoethyl)-2-oxo-N-(2-oxaspiro[3.3]heptan-6-yl)-1,2-dihydro-1,8-naphthyridine-3-carboxamide], the 50% inhibitory concentration (IC50) on human CB2 receptor [1] (class symbols) was less than 100 nM; on human recombinant CB1R (class symbols), greater than 1000 nM; at human CB2 receptor [2] (setting [3]), 127 nM. The Emax on human CB2 receptor [2] was 78%.
With `O=C(NC1CC2(CCC2)C1)c1cc2cc(-c3ccc4c(c3)OCCO4)cnc2n(CCN2CCOCC2)c1=O` [Compound 33, 6-(2,3-dihydrobenzo[b][1,4]dioxin-6-yl)-1-(2-morpholinoethyl)-2-oxo-N-(spiro[3.3]heptan-2-yl)-1,2-dihydro-1,8-naphthyridine-3-carboxamide], the concentration for half-maximal inhibition (IC50) at human CB2 receptor [1] was 4 nM; at human recombinant CB1R it was greater than 10000 nM; at human CB2 receptor [2], 6 nM.
Turning to `N#Cc1ccc(-c2cnc3c(c2)cc(C(=O)NC2CC4(CCC4)C2)c(=O)n3CCN2CCOCC2)nc1` [Compound 36, 6-(5-cyanopyridin-2-yl)-1-(2-morpholinoethyl)-2-oxo-N-(spiro[3.3]heptan-2-yl)-1,2-dihydro-1,8-naphthyridine-3-carboxamide], the half-maximal inhibitory concentration (IC50) was 5 nM on human CB2 receptor [1], greater than 10000 nM on human recombinant CB1R and 13 nM at human CB2 receptor [2]. In addition, the Emax at human CB2 receptor [2] worked out at 89%.
`CC(C)(NC(=O)c1cc2cc(-c3ccc(C#N)cn3)cnc2n(CCN2CCOCC2)c1=O)c1ccc(F)cc1` [Compound 40, 6-(5-cyanopyridin-2-yl)-N-(2-(4-fluorophenyl)propan-2-yl)-1-(2-morpholinoethyl)-2-oxo-1,2-dihydro-1,8-naphthyridine-3-carboxamide]: the IC50 on human CB2 receptor [1] is 7 nM; on human recombinant CB1R it was greater than 10000 nM; against human CB2 receptor [2] it was 10 nM. The Emax at human CB2 receptor [2] is 74%.
In the case of `N#Cc1ccc(-c2cnc3c(c2)cc(C(=O)NC2(c4ccc(F)cc4)CC2)c(=O)n3CCN2CCOCC2)nc1` [Compound 42, 6-(5-cyanopyridin-2-yl)-N-(1-(4-fluorophenyl)cyclopropyl)-1-(2-morpholinoethyl)-2-oxo-1,2-dihydro-1,8-naphthyridine-3-carboxamide], the half-maximal inhibitory concentration (IC50) on human CB2 receptor [1] was 23 nM; on human recombinant CB1R, greater than 10000 nM; at human CB2 receptor [2] it was 14 nM. Besides, the Emax at human CB2 receptor [2] worked out at 73%.
`N#Cc1ccc(-c2cnc3c(c2)cc(C(=O)NC2CC4(CCC4)C2)c(=O)n3CCN2CCOCC2)cc1` [Compound 44, 6-(4-cyanophenyl)-1-(2-morpholinoethyl)-2-oxo-N-(spiro[3.3]heptan-2-yl)-1,2-dihydro-1,8-naphthyridine-3-carboxamide]: the half-inhibitory concentration (IC50) at human CB2 receptor [1] was 7.2 nM; at human recombinant CB1R, 6080 nM; on human CB2 receptor [2] (setting [3]), greater than 1000 nM.
Take `CC(NC(=O)c1cc2cc(-c3ccc(C#N)cc3)cnc2n(CCN2CCOCC2)c1=O)c1ccc(F)cc1` (stereo not shown) [Compound 45, 6-(4-cyanophenyl)-N-(1-(4-fluorophenyl)ethyl)-1-(2-morpholinoethyl)-2-oxo-1,2-dihydro-1,8-naphthyridine-3-carboxamide]: the half-maximal inhibitory concentration (IC50) was less than 100 nM at human CB2 receptor [1] (class symbols), greater than 1000 nM at human recombinant CB1R (class symbols) and 15 nM on human CB2 receptor [2]. Further, the Emax on human CB2 receptor [2] was 70%.
`N#Cc1ccc(-c2cnc3c(c2)cc(C(=O)NC24CC(C2)C4)c(=O)n3CCN2CCOCC2)cc1` [Compound 46, N-(bicyclo[1.1.1]pentan-1-yl)-6-(4-cyanophenyl)-1-(2-morpholinoethyl)-2-oxo-1,2-dihydro-1,8-naphthyridine-3-carboxamide]: the IC50 on human CB2 receptor [1] amounted to 6 nM; on human recombinant CB1R, 8610 nM; against human CB2 receptor [2], 14 nM. For the same compound, the Emax at human CB2 receptor [2] was 77%.
